# From the supplement of paper PMC11208160
# Assay: recombinant barcode read abundance after kanamycin selection (control-corrected) (log10(CPM+1)); higher = more efficient recombination; sequences stand for … in AGTGCAGAGAAAATCGGCCAGTTTTCTCTGCCTGCAGTCCGCATGCCGT…AGATTTATGCAGCGGACTGCCTTTCTCCCAAAGTGATAAACCGGACAGTATCATGGACCGGTTTTCCCGGTAATCCGTATTTGCAAGGTTGGTTTCACT; site = the 11-nt target
# Summary of the method: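 For this pooled screen, each oligo contained a promoter, a target, a barcode and the J23119-driven first 104 bases of the bridge RNA. Gibson cloning placed it into a vector supplying the remaining 73 bp and a T7-inducible recombinase, and the pool was co-electroporated into E. coli with a donor plasmid. Recombination efficiency is derived from barcode counts per million at recombinant junctions after averaging and control correction, and is expressed on a log scale as log10(CPM+1), with selection on chloramphenicol/ampicillin/kanamycin plus 0.1 mM IPTG against a chloramphenicol/ampicillin LB agar control.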
# 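Also: IS621 recombinase and bridge RNA in Escherichia coli cells.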
row,Sequence,recombinant barcode read abundance (log10)
1,CAGGCCACTTGGGTTCTAACCTGTTGCCT (site CCGGCCACTAG),0.0473
2,ACGTCCACTTGGGTTCTAACCTGTTGCCA (site GGAAGGTCTAT),0.025
3,CTCATTCCTTGGGTTCTAACCTGTTGCGT (site CTCATTCCTAT),0.212
4,ATATGAGCTTGGGTTCTAACCTGTTGCCA (site TTATGAGCTCG),0.0938
5,TAGAAGGCTTGGGTTCTAACCTGTTGCTA (site TAGAAGGCTTA),1.15
6,TAGTAGTCTTGGGTTCTAACCTGTTGCGT (site TAGTAGTCTAC),2.79
7,TCGCGCTCTTGGGTTCTAACCTGTTGCTT (site TCGAACTCTAA),0.233
8,GACTCTCCTTGGGTTCTAACCTGTTGCAG (site GACTCTCCTCA),0.147
9,ATGATTCCTTGGGTTCTAACCTGTTGCCT (site ATGATTCCTAG),0.62
10,TAGATCACTTGGGTTCTAACCTGTTGCAT (site TAGCTCACTAT),0.408
11,CTGGTTCCTTGGGTTCTAACCTGTTGCCT (site CTGGCTCCTAA),0.874
12,GAAATGTCTTGGGTTCTAACCTGTTGCCT (site GGAATGTCTAG),0.262
13,GACCGGGCTTGGGTTCTAACCTGTTGCCT (site GACCGCGCTAG),0.234
14,GCGTTGCCTTGGGTTCTAACCTGTTGCCT (site GCGTTGCCTAG),0.213
15,CAAGCACCTTGGGTTCTAACCTGTTGCTT (site CAATCACCTAA),0.338
16,GTATGAACTTGGGTTCTAACCTGTTGCCT (site GTATGATCTAG),0.119
17,CCGAGAGCTTGGGTTCTAACCTGTTGCCT (site CTGAGAGCTAG),0.0419
18,CTAGTGACTTGGGTTCTAACCTGTTGCGT (site CTAGTGACTCC),0.313
19,ACCTGAACTTGGGTTCTAACCTGTTGCCT (site ACGTGAACTAG),0.0712
20,CAATCTACTTGGGTTCTAACCTGTTGCCT (site CAACCTACTAG),0.391
21,GCGACTCCTTGGGTTCTAACCTGTTGCTA (site GAGACTCCTTA),0.739
22,AAATTTCCTTGGGTTCTAACCTGTTGCCT (site AGATTTCCTAG),0.0553

row,Sequence,recombinant barcode read abundance (log10)
1,CAGTACTCTTGGGTTCTAACCTGTTGCCT (site CAGTACTCTAG),2.29
2,GCGACTCCTTGGGTTCTAACCTGTTGCAT (site GCGTCTCCTAT),0.0718
3,GATCTAGCTTGGGTTCTAACCTGTTGCAT (site GATCTAGCTAT),0.574
4,CTACGCGCTTGGGTTCTAACCTGTTGCTT (site CTACGCGCTAA),0.921
5,TTAGCGTCTTGGGTTCTAACCTGTTGCCT (site TTAGCGTCTAG),1.73
6,TGCACTCCTTGGGTTCTAACCTGTTGCCT (site TACAGTCCTAG),0.0234
7,CGCCCACCTTGGGTTCTAACCTGTTGCCT (site CGCCCACCTAG),0.0145
8,GCGTCACCTTGGGTTCTAACCTGTTGCCT (site GCGTCACCTAG),0.394
9,ATGGCGGCTTGGGTTCTAACCTGTTGCCT (site ATGGCGGCTAG),1.69
10,GCCGTCTCTTGGGTTCTAACCTGTTGCCT (site GCCATCTCTAG),0.114
11,GAGACGGCTTGGGTTCTAACCTGTTGCTT (site GAGACGGCTAA),1.22
12,AGCGAAGCTTGGGTTCTAACCTGTTGCCT (site AGCGAAGCTAG),0.382
13,GGGACGACTTGGGTTCTAACCTGTTGCTA (site GGGACGACTAA),0.161
14,GCGTGAGCTTGGGTTCTAACCTGTTGCCT (site GCATGAGCTAG),1.07
15,TTATGATCTTGGGTTCTAACCTGTTGCCT (site TTATGATCTAG),0.193
16,TGAGTCCCTTGGGTTCTAACCTGTTGCTT (site TGAGTGCCTAA),0.0566
17,CTATCGCCTTGGGTTCTAACCTGTTGCCT (site CTATCGCCTAG),0.496
18,CCGGGTACTTGGGTTCTAACCTGTTGCCG (site AGCAACCCTTT),0.0127
19,CCAGGGACTTGGGTTCTAACCTGTTGCCT (site CCAAGGACTAG),0.683
20,CATGAGCCTTGGGTTCTAACCTGTTGCCT (site CATGAGCCTAG),2.23
21,GTCATGCCTTGGGTTCTAACCTGTTGCCT (site GTCATGCCTAG),1.1
22,TAGACGACTTGGGTTCTAACCTGTTGCTT (site TAGTCGACTAA),0.086

row,Sequence,recombinant barcode read abundance (log10)
1,ATACTCTCTTGGGTTCTAACCTGTTGCCT (site AGACTCTCTAG),0
2,AACTGGGCTTGGGTTCTAACCTGTTGCCT (site AACTGGGCTAG),0.252
3,CAATATCCTTGGGTTCTAACCTGTTGCCT (site CATTATCCTAG),0.0807
4,ATTAGGACTTGGGTTCTAACCTGTTGCAG (site ATTAGGACTCT),2.1
5,CATTAGTCTTGGGTTCTAACCTGTTGCCT (site TATTAATCTAG),0.0986
6,CACAAGTCTTGGGTTCTAACCTGTTGCAG (site CACAAGTCTCG),0.519
7,TAGTTTACTTGGGTTCTAACCTGTTGCTA (site GGTCAGTCTCC),0.0822
8,CGATCGCCTTGGGTTCTAACCTGTTGCCT (site CGATCGCCTAG),0.339
9,ATCTTAACTTGGGTTCTAACCTGTTGCCT (site ATCTTATCTAG),0.00981
10,CCAAGCGCTTGGGTTCTAACCTGTTGCCT (site CCAAGCGCTAG),0.769
11,CTAAGAACTTGGGTTCTAACCTGTTGCCT (site CTAAGAACTAT),0
12,TATTTGCCTTGGGTTCTAACCTGTTGCCT (site TACTTGCCTAG),0
13,AGAAGCACTTGGGTTCTAACCTGTTGCCA (site CTGTCTCCTAC),0.00729
14,AGCCGAACTTGGGTTCTAACCTGTTGCCT (site AGCCGAACTAG),0.832
15,GGCTTACCTTGGGTTCTAACCTGTTGCCT (site CGCTTACCTAG),0.0687
16,AGAAGTCCTTGGGTTCTAACCTGTTGCCG (site AGAAGTCCTCA),0.236
17,TAGTCCACTTGGGTTCTAACCTGTTGCGC (site TAGTCCACTGC),1.98
18,CTCCATTCTTGGGTTCTAACCTGTTGCAT (site CTCAATTCTAT),0.217
19,GTGAGGACTTGGGTTCTAACCTGTTGCCT (site GTGAGGACTAG),1.49
20,TGCATAGCTTGGGTTCTAACCTGTTGCAG (site TGCATAGCTCT),1.49
21,GCGGGTCCTTGGGTTCTAACCTGTTGCCT (site GCGGGTCCTAG),2.15
22,GGATAGCCTTGGGTTCTAACCTGTTGCTT (site GGATGGACTAA),0.17

row,Sequence,recombinant barcode read abundance (log10)
1,GAGATCCCTTGGGTTCTAACCTGTTGCTG (site GAGATCCCTCA),2.37
2,ACCGTTCCTTGGGTTCTAACCTGTTGCCT (site CTTTAAGCTTA),0.0328
3,CTGCGGTCTTGGGTTCTAACCTGTTGCAT (site ATGCGGTCTAG),0.138
4,AGAGAGACTTGGGTTCTAACCTGTTGCAC (site TGATAGACTGT),0.169
5,GGTCCAACTTGGGTTCTAACCTGTTGCCT (site GGTCGAACTAG),0.0176
6,AGACCTCCTTGGGTTCTAACCTGTTGCTT (site AGACTTCCTAA),0.0176
7,GCCGATACTTGGGTTCTAACCTGTTGCCT (site GCCGATACTAG),0.113
8,AATAGCTCTTGGGTTCTAACCTGTTGCCT (site CATAGCTCTAG),0.0982
9,AATTCGACTTGGGTTCTAACCTGTTGCCT (site AGTTCGACTAG),0.222
10,TAGTGCTCTTGGGTTCTAACCTGTTGCCC (site TAGTGCTCTCG),0.576
11,GCGGGTCCTTGGGTTCTAACCTGTTGCCT (site GCCGGTCCTAG),0.213
12,CTCCTGCCTTGGGTTCTAACCTGTTGCCT (site CTCCTGCCTAG),0.977
13,TAGCACCCTTGGGTTCTAACCTGTTGCCT (site TAGCACCCTGG),0.671
14,CGAACTACTTGGGTTCTAACCTGTTGCGT (site CGAACTACTAC),0.143
15,AGCCCTCCTTGGGTTCTAACCTGTTGCTG (site AGCCCTCCTCA),1.49
16,GCGGATCCTTGGGTTCTAACCTGTTGCCT (site GCGCATCCTAG),0.0111
17,TAGTCGACTTGGGTTCTAACCTGTTGCTT (site TAGTCGACTAA),0.103
18,CTTGGAACTTGGGTTCTAACCTGTTGCCT (site CTTGGAGCTAG),0
19,AGTTCCACTTGGGTTCTAACCTGTTGCCT (site AGTTCCACTAG),0.324
20,GTCCACCCTTGGGTTCTAACCTGTTGCAG (site GTCCACTCTGT),0.01
